# Source: patent US4393228A, “Epoxysuccinic acid derivatives” (Taisho Pharmaceutical Co., Ltd., priority 1977, dated 1983)
# Target: T1, papain (Carica papaya, UniProt P00784)
# T1 construct: purchased Sigma Chem. Co
# T1 sequence (P00784 134-345): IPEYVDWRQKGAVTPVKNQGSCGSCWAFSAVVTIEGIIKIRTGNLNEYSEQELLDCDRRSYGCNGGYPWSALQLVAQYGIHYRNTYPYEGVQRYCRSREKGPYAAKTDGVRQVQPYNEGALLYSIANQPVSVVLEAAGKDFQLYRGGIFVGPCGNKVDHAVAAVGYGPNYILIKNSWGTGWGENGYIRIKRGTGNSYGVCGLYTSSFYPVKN
# Assay: Papain inhibitory activity (milk casein digestion)
# Assay type: biochemical
# Conditions: papain 80 μg/ml 0.5 ml, cysteine, pH 6.8, 1% milk casein, 40° C., 10 minutes
# Method: Papain inhibitory activity of the compounds of this invention was assayed as follows: To 0.5 ml of a solution of papain (80 μg/ml, Sigma Chem. Co., 2x cry.), were added 0.25 ml of 40 mM cysteine dissolved in 20 mM disodium ethylenediamine tetraacetic acid solution adjusted pH to 6.8 with sodium hydroxide and 0.25 ml of 33 mM phosphate buffer (pH 6.8) with or without inhibitor. After incubation at 40° C. for 15 minutes, the resulting mixture was added to 5 ml of 1% milk casein solution in the same buffer as described above, and further incubated at 40° C. for 10 minutes. Then the mixture was mixed with 5 ml of 0.44 M trichloroacetic acid solution and followed by filtration with a sheet of Toyo filter paper No. 4. The extinction of the filtrate was read at 280 nm. The percent inhibition was calculated from the formula, 100 x (B-A)/B; wherein B stands for the absorbance without inhibitor and A for the absorbance with inhibitor. The compound Nos. in Table 1 are as defined in Examples as described hereinafter.
row,Compound,ID50 (amount of inhibitor for 50% inhibition)
1,"O=C(OCCCCC1CCCCC1)[C@@H]1O[C@H]1C(=O)OCCCCC1CCCCC1 (relative stereo) [EP-67, di-4-cyclohexanebutyl epoxysuccinate]",93.28 γ
2,"O=C(O)[C@@H]1O[C@H]1C(=O)OCCCCC1CCCCC1 (relative stereo) [EP-68, 4-cyclohexanebutyl potassium epoxysuccinate]",0.10 γ
3,"O=C(OCC1CCC=CCCC1)[C@@H]1O[C@H]1C(=O)OCC1CCC=CCCC1 (relative stereo) [EP-73, di-4-cyclooctenemethyl epoxysuccinate]",0.10 γ
4,"O=C(O)[C@@H]1O[C@H]1C(=O)OCC1CCC=CCCC1 (relative stereo) [EP-74, 4-cyclooctenemethyl potassium epoxysuccinate]",0.07 γ
5,"O=C(O)[C@@H]1O[C@H]1C(=O)OCC1CCCO1 (relative stereo) [EP-76, tetrahydro-2-furanmethyl potassium epoxysuccinate]",0.82 γ
6,"O=C(OCc1ccco1)[C@@H]1O[C@H]1C(=O)OCc1ccco1 (relative stereo) [EP-77, di-2-furanmethyl epoxysuccinate]",0.77 γ
7,"O=C(O)[C@@H]1O[C@H]1C(=O)OCc1ccco1 (relative stereo) [EP-78, 2-furanmethyl potassium epoxysuccinate]",0.54 γ
8,"O=C(O)[C@@H]1O[C@H]1C(=O)OCc1cccs1 (relative stereo) [EP-80, 2'-thenyl potassium epoxysuccinate]",0.32 γ
9,"O=C(O)[C@@H]1O[C@H]1C(=O)OCc1cccc2ccccc12 (relative stereo) [EP-82, 1'-naphthylmethyl potassium epoxysuccinate]",0.34 γ
10,"O=C(OCc1c(Cl)ccc2ccccc12)[C@@H]1O[C@H]1C(=O)OCc1c(Cl)ccc2ccccc12 (relative stereo) [EP-83, di-2'-chloro-1'-naphthylmethyl epoxysuccinate]",1.55 γ
11,"O=C(O)[C@@H]1O[C@H]1C(=O)OCc1c(Cl)ccc2ccccc12 (relative stereo) [EP-84, 2'-chloro-1'-naphthylmethyl potassium epoxysuccinate]",0.29 γ
12,"O=C(OCc1cccc2c(Br)cccc12)[C@@H]1O[C@H]1C(=O)OCc1cccc2c(Br)cccc12 (relative stereo) [EP-85, di-5'-bromo-1'-naphthylmethyl epoxysuccinate]",1.56 γ
13,"O=C(O)[C@@H]1O[C@H]1C(=O)OCc1cccc2c(Br)cccc12 (relative stereo) [EP-86, 5'-bromo-1'-naphthylmethyl potassium epoxysuccinate]",0.27 γ
14,"Cc1cccc2c(COC(=O)[C@@H]3O[C@H]3C(=O)OCc3ccc(C)c4c(C)cccc34)ccc(C)c12 (relative stereo) [EP-87, di-4',5'-dimethyl-1'-naphthylmethyl epoxysuccinate]",1.58 γ
15,"Cc1cccc2c(COC(=O)[C@@H]3O[C@H]3C(=O)O)ccc(C)c12 (relative stereo) [EP-88, 4',5'-dimethyl-1'-naphthylmethyl potassium epoxysuccinate]",0.32 γ
16,"Cc1ccc(COC(=O)[C@@H]2O[C@H]2C(=O)OCc2ccc(C)cc2)cc1 (relative stereo) [EP-89, di-p-methylbenzyl epoxysuccinate]",1.39 γ

row,Compound,ID50 (amount of inhibitor for 50% inhibition)
1,"Cc1ccc(COC(=O)[C@@H]2O[C@H]2C(=O)O)cc1 (relative stereo) [EP-90, p-methylbenzyl potassium epoxysuccinate]",0.25 γ
2,"Cc1ccccc1COC(=O)[C@@H]1O[C@H]1C(=O)OCc1ccccc1C (relative stereo) [EP-91, di-o-methylbenzyl epoxysuccinate]",0.35 γ
3,"Cc1ccccc1COC(=O)[C@@H]1O[C@H]1C(=O)O (relative stereo) [EP-92, o-methylbenzyl potassium epoxysuccinate]",0.10 γ
4,"Cc1cc(C)cc(COC(=O)[C@@H]2O[C@H]2C(=O)OCc2cc(C)cc(C)c2)c1 (relative stereo) [EP-93, di-3',5'-dimethylbenzyl epoxysuccinate]",4.31 γ
5,"Cc1cc(C)cc(COC(=O)[C@@H]2O[C@H]2C(=O)O)c1 (relative stereo) [EP-94, 3',5'-dimethylbenzyl potassium epoxysuccinate]",0.27 γ
6,"Cc1cc(C)c(COC(=O)[C@@H]2O[C@H]2C(=O)OCc2c(C)cc(C)cc2C)c(C)c1 (relative stereo) [EP-95, di-2',4',6'-trimethylbenzyl epoxysuccinate]",4.20 γ
7,"Cc1cc(C)c(COC(=O)[C@@H]2O[C@H]2C(=O)O)c(C)c1 (relative stereo) [EP-96, 2',4',6'-trimethylbenzyl potassium epoxysuccinate]",0.37 γ
8,"Cc1cccc(COC(=O)[C@@H]2O[C@H]2C(=O)OCc2cccc(C)c2Br)c1Br (relative stereo) [EP-97, di-2'-bromo-3'-methylbenzyl epoxysuccinate]",3.20 γ
9,"Cc1cccc(COC(=O)[C@@H]2O[C@H]2C(=O)O)c1Br (relative stereo) [EP-98, 2'-bromo-3'-methylbenzyl potassium epoxysuccinate]",0.32 γ
10,"O=C(OCc1cccc(C(F)(F)F)c1)[C@@H]1O[C@H]1C(=O)OCc1cccc(C(F)(F)F)c1 (relative stereo) [EP-99, di-3'-trifluoromethylbenzyl epoxysuccinate]",0.50 γ
11,"O=C(O)[C@@H]1O[C@H]1C(=O)OCc1cccc(C(F)(F)F)c1 (relative stereo) [EP-100, 3'-trifluoromethylbenzyl potassium epoxysuccinate]",0.10 γ
12,"COc1ccc(COC(=O)[C@@H]2O[C@H]2C(=O)OCc2ccc(OC)cc2)cc1 (relative stereo) [EP-101, di-p-methoxybenzyl epoxysuccinate]",1.51 γ
13,"O=C(OCc1ccc2c(c1)OCO2)[C@@H]1O[C@H]1C(=O)OCc1ccc2c(c1)OCO2 (relative stereo) [EP-103, di-methylene-3',4'-dioxybenzyl epoxysuccinate]",1.06 γ
14,"O=C(O)[C@@H]1O[C@H]1C(=O)OCc1ccc2c(c1)OCO2 (relative stereo) [EP-104, methylene-3',4'-dioxybenzyl potassium epoxysuccinate]",0.36 γ
15,"O=C(OCc1ccccc1I)[C@@H]1O[C@H]1C(=O)OCc1ccccc1I (relative stereo) [EP-105, di-o-iodobenzyl epoxysuccinate]",0.40 γ
